From US6914045B2, “Glycopeptide antibiotics” (Wyeth Holdings Corporation, priority 2001, dated 2005)
Converted amounts (≈) assume the structure as drawn.

Assays:
Assay in all cases: in vitro antibacterial evaluation, MIC by broth dilution
Type in all cases: cell-based
Enterococcus sp. = conditions: broth dilution, 18 hours at 35° C.; for MIC Enterococcus faecalis (GC 2242): strain GC 2242; for MIC Enterococcus faecalis (GC 4552): strain GC 4552
Summary of the method: (§1)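 Broth dilution per NCCLS M7-A2 in Mueller-Hinton II medium, inoculum 5×10^5 CFU/mL, antibiotic range 64-0.06 μg/mL. MIC taken as lowest concentration inhibiting growth; Gram-positive panel includes recent clinical isolates resistant to methicillin, penicillin and/or vancomycin.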

Escherichia coli = conditions: 18 hours at 35° C.
Summary of the method: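 Step 1: dilute antibiotic across 64-0.06 μg/mL in Muller-Hinton II […]. Step 2: inoculate at 5×10^5 CFU/mL.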

Staphylococcus sp. = conditions: broth dilution, 18 hours at 35° C.
Summary of the method: as §1

Streptococcus sp. = conditions: broth dilution, 18 hours at 35° C.; for MIC Streptococcus agalactiae (GC 4564): strain GC 4564; for MIC Streptococcus pyogenes (ID-3187): strain ID-3187
Summary of the method: as §1

[1] = Enterococcus faecalis (ATCC 29212)
[2] = Enterococcus faecalis (GC 4553)
[3] = Enterococcus faecalis (GC 4554)

CC(C)CC(=O)OC1C(OC2C(CO)OC(Oc3ccc(CC4NC(=O)C(C(C)c5cccs5)NC(=O)CNC(=O)C(CO)NC(=O)C(C(O)C5CNC(=N)N5C5OC(CO)C(O)C(O)C5O)NC(=O)C(C(O)C5CNC(=N)N5)NC4=O)cc3)C(O)C2O)OC(CO)C(O)C1O (stereo not drawn) [Example 265a, Cyclo[3-(2-thienyl)-2-aminobutanoyl-O-[4-O-[2-O-(3-methylbutanoyl)hexopyranosyl]hexopyranosyl]tyrosyl-3-(2-iminoimidazolidin-4-yl)seryl-3-(3-hexopyranosyl-2-iminoimidazolidin-4-yl)serylserylglycyl]]
MIC Enterococcus avium (GC 4558) (Enterococcus sp.; Enterococcus avium (GC 4558)): 64 µg/mL (≈ 46.2 µM)
MIC Enterococcus faecalis (ATCC 29212) (Enterococcus sp.; [1]): 64 µg/mL (≈ 46.2 µM)
MIC Enterococcus faecalis (GC 4553) (Enterococcus sp.; [2]): >64 µg/mL
MIC Enterococcus faecalis (GC 4554) (Enterococcus sp.; [3]): >64 µg/mL
MIC Enterococcus faecium (GC 2243) (Enterococcus sp.; Enterococcus faecium (GC 2243)): >64 µg/mL
MIC Enterococcus faecium (GC 4556) (Enterococcus sp.; Enterococcus faecium (GC 4556)): 64 µg/mL (≈ 46.2 µM)
MIC Enterococcus faecium (GC 4557) (Enterococcus sp.; Enterococcus faecium (GC 4557)): 8 µg/mL (≈ 5.77 µM)
MIC Enterococcus faecalis (ATCC 29212) (Enterococcus sp.; strain ATCC 29212): 64 µg/mL (≈ 46.2 µM)
MIC Enterococcus faecalis (GC 2242) (Enterococcus sp.): 64 µg/mL (≈ 46.2 µM)
MIC Enterococcus faecium (GC 2243) (Enterococcus sp.; strain GC 2243): >64 µg/mL
MIC Enterococcus faecalis (GC 4552) (Enterococcus sp.): >64 µg/mL
MIC Enterococcus faecalis (GC 4553) (Enterococcus sp.; strain GC 4553): >64 µg/mL
MIC Enterococcus faecalis (GC 4554) (Enterococcus sp.; strain GC 4554): >64 µg/mL
MIC Enterococcus faecium (GC 4556) (Enterococcus sp.; strain GC 4556): 64 µg/mL (≈ 46.2 µM)
MIC Enterococcus faecium (GC 4557) (Enterococcus sp.; strain GC 4557): 8 µg/mL (≈ 5.77 µM)
MIC Enterococcus avium (GC 4558) (Enterococcus sp.; strain GC 4558): 64 µg/mL (≈ 46.2 µM)
MIC Escherichia coli (ATCC 25922) (Escherichia coli): >64 µg/mL
MIC Escherichia coli (GC 4559) (Escherichia coli): >64 µg/mL
MIC Escherichia coli (GC 4560) (Escherichia coli): 4 µg/mL (≈ 2.89 µM)
MIC Coagulase Negative Staphylococcus (GC 4547) (Staphylococcus sp.): 8 µg/mL (≈ 5.77 µM)
MIC Coagulase Negative Staphylococcus (GC 4548) (Staphylococcus sp.): 8 µg/mL (≈ 5.77 µM)
MIC Coagulase Negative Staphylococcus (GC 4549) (Staphylococcus sp.): 4 µg/mL (≈ 2.89 µM)
MIC Coagulase Negative Staphylococcus (GC 4551) (Staphylococcus sp.): 8 µg/mL (≈ 5.77 µM)
MIC Staphylococcus aureus (ATCC 29213) (Staphylococcus sp.): 16 µg/mL (≈ 11.5 µM)
MIC Staphylococcus aureus (GC 1131) (Staphylococcus sp.): 32 µg/mL (≈ 23.1 µM)
MIC Staphylococcus aureus (GC 4541) (Staphylococcus sp.): 16 µg/mL (≈ 11.5 µM)
MIC Staphylococcus aureus (GC 4542) (Staphylococcus sp.): 16 µg/mL (≈ 11.5 µM)
MIC Staphylococcus aureus (GC 4544) (Staphylococcus sp.): 8 µg/mL (≈ 5.77 µM)
MIC Staphylococcus aureus (GC 4545) (Staphylococcus sp.): 16 µg/mL (≈ 11.5 µM)
MIC Staphylococcus aureus-SMITH (GC 4543) (Staphylococcus sp.): 8 µg/mL (≈ 5.77 µM)
MIC Staphylococcus haemolyticus (GC 4546) (Staphylococcus sp.): 8 µg/mL (≈ 5.77 µM)
MIC Staphylococcus aureus (ATCC 29213) (Staphylococcus sp.; strain ATCC 29213): 16 µg/mL (≈ 11.5 µM)
MIC Staphylococcus aureus (GC 1131) (Staphylococcus sp.; strain GC 1131): 32 µg/mL (≈ 23.1 µM)
MIC Staphylococcus aureus (GC 4541) (Staphylococcus sp.; strain GC 4541): 16 µg/mL (≈ 11.5 µM)
MIC Staphylococcus aureus (GC 4542) (Staphylococcus sp.; strain GC 4542): 16 µg/mL (≈ 11.5 µM)
MIC Staphylococcus aureus (GC 4544) (Staphylococcus sp.; strain GC 4544): 8 µg/mL (≈ 5.77 µM)
MIC Staphylococcus aureus (GC 4545) (Staphylococcus sp.; strain GC 4545): 16 µg/mL (≈ 11.5 µM)
MIC Staphylococcus haemolyticus (GC 4546) (Staphylococcus sp.; strain GC 4546): 8 µg/mL (≈ 5.77 µM)
MIC Coagulase Negative Staphylococcus (GC 4547) (Staphylococcus sp.; strain GC 4547): 8 µg/mL (≈ 5.77 µM)
MIC Coagulase Negative Staphylococcus (GC 4548) (Staphylococcus sp.; strain GC 4548): 8 µg/mL (≈ 5.77 µM)
MIC Coagulase Negative Staphylococcus (GC 4549) (Staphylococcus sp.; strain GC 4549): 4 µg/mL (≈ 2.89 µM)
MIC Coagulase Negative Staphylococcus (GC 4551) (Staphylococcus sp.; strain GC 4551): 8 µg/mL (≈ 5.77 µM)
MIC Staphylococcus aureus-SMITH (GC 4543) (Staphylococcus sp.; strain SMITH GC 4543): 8 µg/mL (≈ 5.77 µM)
MIC Streptococcus agalactiae (GC 4564) (Streptococcus sp.): 4 µg/mL (≈ 2.89 µM)
MIC Streptococcus pyogenes (ID-3187) (Streptococcus sp.): 4 µg/mL (≈ 2.89 µM)

CC(C)CC(=O)OC1C(O)C(CO)OC(OC2C(CO)OC(Oc3ccc(CC4NC(=O)C(C(C)c5cccs5)NC(=O)CNC(=O)C(CO)NC(=O)C(C(O)C5CNC(=N)N5C5OC(CO)C(O)C(O)C5O)NC(=O)C(C(O)C5CNC(=N)N5)NC4=O)cc3)C(O)C2O)C1O (stereo not drawn) [Example 265b, Cyclo[3-(2-thienyl)-2-aminobutanoyl-O-[4-O-[3-O-(3-methylbutanoyl)hexopyranosyl]hexoipyranosyl]tyrosyl-3-(2-iminoimidazolidin-4-yl)seryl-3-(3-hexolpyranosyl-2-iminoimidazolidin-4-yl)serylserylglycyl]]
MIC Enterococcus avium (GC 4558) (Enterococcus sp.; Enterococcus avium (GC 4558)): 64 µg/mL (≈ 46.2 µM)
MIC Enterococcus faecalis (ATCC 29212) (Enterococcus sp.; [1]): 64 µg/mL (≈ 46.2 µM)
MIC Enterococcus faecalis (GC 4553) (Enterococcus sp.; [2]): 64 µg/mL (≈ 46.2 µM)
MIC Enterococcus faecalis (GC 4554) (Enterococcus sp.; [3]): >64 µg/mL
MIC Enterococcus faecium (GC 2243) (Enterococcus sp.; Enterococcus faecium (GC 2243)): 64 µg/mL (≈ 46.2 µM)
MIC Enterococcus faecium (GC 4556) (Enterococcus sp.; Enterococcus faecium (GC 4556)): 64 µg/mL (≈ 46.2 µM)
MIC Enterococcus faecium (GC 4557) (Enterococcus sp.; Enterococcus faecium (GC 4557)): 8 µg/mL (≈ 5.77 µM)
MIC Enterococcus faecalis (ATCC 29212) (Enterococcus sp.; strain ATCC 29212): 64 µg/mL (≈ 46.2 µM)
MIC Enterococcus faecalis (GC 2242) (Enterococcus sp.): 64 µg/mL (≈ 46.2 µM)
MIC Enterococcus faecium (GC 2243) (Enterococcus sp.; strain GC 2243): 64 µg/mL (≈ 46.2 µM)
MIC Enterococcus faecalis (GC 4552) (Enterococcus sp.): 64 µg/mL (≈ 46.2 µM)
MIC Enterococcus faecalis (GC 4553) (Enterococcus sp.; strain GC 4553): 64 µg/mL (≈ 46.2 µM)
MIC Enterococcus faecalis (GC 4554) (Enterococcus sp.; strain GC 4554): >64 µg/mL
MIC Enterococcus faecium (GC 4556) (Enterococcus sp.; strain GC 4556): 64 µg/mL (≈ 46.2 µM)
MIC Enterococcus faecium (GC 4557) (Enterococcus sp.; strain GC 4557): 8 µg/mL (≈ 5.77 µM)
MIC Enterococcus avium (GC 4558) (Enterococcus sp.; strain GC 4558): 64 µg/mL (≈ 46.2 µM)
MIC Escherichia coli (ATCC 25922) (Escherichia coli): >64 µg/mL
MIC Escherichia coli (GC 4559) (Escherichia coli): 64 µg/mL (≈ 46.2 µM)
MIC Escherichia coli (GC 4560) (Escherichia coli): 4 µg/mL (≈ 2.89 µM)
MIC Coagulase Negative Staphylococcus (GC 4547) (Staphylococcus sp.): 8 µg/mL (≈ 5.77 µM)
MIC Coagulase Negative Staphylococcus (GC 4548) (Staphylococcus sp.): 4 µg/mL (≈ 2.89 µM)
MIC Coagulase Negative Staphylococcus (GC 4549) (Staphylococcus sp.): 4 µg/mL (≈ 2.89 µM)
MIC Coagulase Negative Staphylococcus (GC 4551) (Staphylococcus sp.): 8 µg/mL (≈ 5.77 µM)
MIC Staphylococcus aureus (ATCC 29213) (Staphylococcus sp.): 16 µg/mL (≈ 11.5 µM)
MIC Staphylococcus aureus (GC 1131) (Staphylococcus sp.): 32 µg/mL (≈ 23.1 µM)
MIC Staphylococcus aureus (GC 4541) (Staphylococcus sp.): 8 µg/mL (≈ 5.77 µM)
MIC Staphylococcus aureus (GC 4542) (Staphylococcus sp.): 8 µg/mL (≈ 5.77 µM)
MIC Staphylococcus aureus (GC 4544) (Staphylococcus sp.): 8 µg/mL (≈ 5.77 µM)
MIC Staphylococcus aureus (GC 4545) (Staphylococcus sp.): 8 µg/mL (≈ 5.77 µM)
MIC Staphylococcus aureus-SMITH (GC 4543) (Staphylococcus sp.): 8 µg/mL (≈ 5.77 µM)
MIC Staphylococcus haemolyticus (GC 4546) (Staphylococcus sp.): 8 µg/mL (≈ 5.77 µM)
MIC Staphylococcus aureus (ATCC 29213) (Staphylococcus sp.; strain ATCC 29213): 16 µg/mL (≈ 11.5 µM)
MIC Staphylococcus aureus (GC 1131) (Staphylococcus sp.; strain GC 1131): 32 µg/mL (≈ 23.1 µM)
MIC Staphylococcus aureus (GC 4541) (Staphylococcus sp.; strain GC 4541): 8 µg/mL (≈ 5.77 µM)
MIC Staphylococcus aureus (GC 4542) (Staphylococcus sp.; strain GC 4542): 8 µg/mL (≈ 5.77 µM)
MIC Staphylococcus aureus (GC 4544) (Staphylococcus sp.; strain GC 4544): 8 µg/mL (≈ 5.77 µM)
MIC Staphylococcus aureus (GC 4545) (Staphylococcus sp.; strain GC 4545): 8 µg/mL (≈ 5.77 µM)
MIC Staphylococcus haemolyticus (GC 4546) (Staphylococcus sp.; strain GC 4546): 8 µg/mL (≈ 5.77 µM)
MIC Coagulase Negative Staphylococcus (GC 4547) (Staphylococcus sp.; strain GC 4547): 8 µg/mL (≈ 5.77 µM)
MIC Coagulase Negative Staphylococcus (GC 4548) (Staphylococcus sp.; strain GC 4548): 4 µg/mL (≈ 2.89 µM)
MIC Coagulase Negative Staphylococcus (GC 4549) (Staphylococcus sp.; strain GC 4549): 4 µg/mL (≈ 2.89 µM)
MIC Coagulase Negative Staphylococcus (GC 4551) (Staphylococcus sp.; strain GC 4551): 8 µg/mL (≈ 5.77 µM)
MIC Staphylococcus aureus-SMITH (GC 4543) (Staphylococcus sp.; strain SMITH GC 4543): 8 µg/mL (≈ 5.77 µM)
MIC Streptococcus agalactiae (GC 4564) (Streptococcus sp.): 8 µg/mL (≈ 5.77 µM)
MIC Streptococcus pyogenes (ID-3187) (Streptococcus sp.): 4 µg/mL (≈ 2.89 µM)
